Patent publication US10815230B2, “Casein kinase 1 delta inhibitor” (ELECTROPHORETICS LIMITED, priority 2015, dated 2020)
Marks after values point to notes of the source that are not given here.

Key:
[1] = tested on: TMHT (Thy-1 Mutated Human Tau) mouse; test: In-vivo efficacy, Morris Water Maze in tau transgenic mice; details: 30 mg/kg orally for 8 weeks
Excerpt: Various compounds of different classes (among them also antibody treatments) were positively tested for their efficacy in the TMHT model. Published examples are the γ-secretase modulator CHF5074 (Lanzilotta A, et al. The γ-secretase modulator CHF5074 reduces the accumulation of native hyperphosphoxylated tau in a transgenic mouse model of Alzheimer's disease. J Mol Neurosci. 45(1):22--33 (2010)), sodium selenate (Corcoran N M et al. Sodium selenate specifically activates PP2A phosphatase, dephosphorylates tau and reverses memory deficits in an Alzheimer's disease model. J Clin Neurosci. 17(8):1025-33 (2010)) and grape-seed polyphenol extract (Wang J et al. Grape derived polyphenols attenuate tau neuropathology in a mouse model of Alzheimer's disease. […] The effects of the compounds on learning in the Morris Mater Maze (MWM) were evaluated. Blood (plasma) and brain samples were collected after sacrification. Samples collected at sacrifice were plasma, left cortex, left hippocampus, right cortex, right hippocampus, remainder of left brain hemisphere, remainder of right brain hemisphere. In total 48 animals were used and allocated to 4 treatment groups. The start position of the mouse and the position of the platform (FIG. 1) in the different trials of the MWM were as indicated in Table 9: […] A descriptive statistical analysis was performed on all evaluated parameters. All data were represented as mean ±standard error of mean (SEM). MWM learning curve data of three trials per day were averaged. Over a period of 4 days, the ability to find a hidden platform using visual cues was measured performing 3 trials a day. By comparison of the learning curves, the cognitive abilities of the different treatment groups and possible drug effects were evaluated.

[2] = molecular target: ABL1 (M351T) phosphorylated (Homo sapiens, UniProt P00519, M351T); test: KINOMEscan binding assay; details: read-out: % Ctrl @ 10000 nM
[3] = molecular target: CDK4-cyclinD1 (Homo sapiens, UniProt P11802); test: KINOMEscan binding assay; details: read-out: % Ctrl @ 10000 nM
[4] = molecular target: CLK3 (Homo sapiens, UniProt P49761); test: KINOMEscan binding assay; details: read-out: % Ctrl @ 10000 nM
[5] = molecular target: CSNK1D (Homo sapiens, UniProt P48730); test: KINOMEscan binding assay; details: read-out: % Ctrl @ 10000 nM
[6] = molecular target: CSNK2A2 (Homo sapiens, UniProt P19784); test: KINOMEscan binding assay; details: read-out: % Ctrl @ 10000 nM
[7] = molecular target: p38-gamma (Homo sapiens, UniProt P53778); test: KINOMEscan binding assay; details: read-out: % Ctrl @ 10000 nM
[8] = molecular target: PAK6 (Homo sapiens, UniProt Q9NQU5); test: KINOMEscan binding assay; details: read-out: % Ctrl @ 10000 nM
[9] = molecular target: PCTK1 (Homo sapiens, UniProt Q00536); test: KINOMEscan binding assay; details: read-out: % Ctrl @ 10000 nM
[10] = molecular target: PRKD1 (Homo sapiens, UniProt Q15139); test: KINOMEscan binding assay; details: read-out: % Ctrl @ 10000 nM
[11] = molecular target: PRKD3 (Homo sapiens, UniProt O94806); test: KINOMEscan binding assay; details: read-out: % Ctrl @ 10000 nM
[12] = molecular target: PYK2 (Homo sapiens, UniProt Q14289); test: KINOMEscan binding assay; details: read-out: % Ctrl @ 10000 nM
[13] = molecular target: RET (Homo sapiens, UniProt P07949); test: KINOMEscan binding assay; details: read-out: % Ctrl @ 10000 nM
[14] = molecular target: RET (M918T) (Homo sapiens, UniProt P07949, M918T); test: KINOMEscan binding assay; details: read-out: % Ctrl @ 10000 nM
[15] = molecular target: RIPK1 (Homo sapiens, UniProt Q13546); test: KINOMEscan binding assay; details: read-out: % Ctrl @ 10000 nM
[16] = molecular target: RIPK2 (Homo sapiens, UniProt O43353); test: KINOMEscan binding assay; details: read-out: % Ctrl @ 10000 nM
[17] = molecular target: T1, WNK3 (Homo sapiens, UniProt Q9BYP7); test: KINOMEscan binding assay; details: read-out: % Ctrl @ 10000 nM
T1 construct: purchased DiscoveRx (KINOMEscan, LeadHunter Discovery services)

[18] = molecular target: CK1e (Homo sapiens, UniProt P49674); test: Kinase selectivity, % remaining activity; type: biochemical; details: 10 μM compound, 10 μM ATP, duplicate
In short: (§1)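 Duplicate single-dose reactions were performed with 10 μM test compound and 10 μM ATP. Results give the fraction of activity retained, in % of DMSO control.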

[19] = molecular target: CK1g1 (Homo sapiens, UniProt Q9HCP0); test: Kinase selectivity, % remaining activity; type: biochemical; details: 10 μM compound, 10 μM ATP, duplicate
In short: as §1

[20] = molecular target: CK1g2 (Homo sapiens, UniProt P78368); test: Kinase selectivity, % remaining activity; type: biochemical; details: 10 μM compound, 10 μM ATP, duplicate
In short: as §1

[21] = molecular target: DAPK1 (Homo sapiens, UniProt P53355); test: Kinase selectivity, % remaining activity; type: biochemical; details: 10 μM compound, 10 μM ATP, duplicate
In short: as §1

[22] = molecular target: LCK (Homo sapiens, UniProt P06239); test: Kinase selectivity, % remaining activity; type: biochemical; details: 10 μM compound, 10 μM ATP, duplicate
In short: as §1

[23] = molecular target: P38a/MAPK14 (Homo sapiens, UniProt Q16539); test: Kinase selectivity, % remaining activity; type: biochemical; details: 10 μM compound, 10 μM ATP, duplicate
In short: as §1

[24] = molecular target: PKCb2 (Homo sapiens, UniProt P05771); test: Kinase selectivity, % remaining activity; type: biochemical; details: 10 μM compound, 10 μM ATP, duplicate
In short: as §1

[25] = molecular target: ROCK1 (Homo sapiens, UniProt Q13464); test: Kinase selectivity, % remaining activity; type: biochemical; details: 10 μM compound, 10 μM ATP, duplicate
In short: as §1

[26] = read-out: % of remaining activity (relative to DMSO)

Sequence of DAPK1 (P53355 whole entry): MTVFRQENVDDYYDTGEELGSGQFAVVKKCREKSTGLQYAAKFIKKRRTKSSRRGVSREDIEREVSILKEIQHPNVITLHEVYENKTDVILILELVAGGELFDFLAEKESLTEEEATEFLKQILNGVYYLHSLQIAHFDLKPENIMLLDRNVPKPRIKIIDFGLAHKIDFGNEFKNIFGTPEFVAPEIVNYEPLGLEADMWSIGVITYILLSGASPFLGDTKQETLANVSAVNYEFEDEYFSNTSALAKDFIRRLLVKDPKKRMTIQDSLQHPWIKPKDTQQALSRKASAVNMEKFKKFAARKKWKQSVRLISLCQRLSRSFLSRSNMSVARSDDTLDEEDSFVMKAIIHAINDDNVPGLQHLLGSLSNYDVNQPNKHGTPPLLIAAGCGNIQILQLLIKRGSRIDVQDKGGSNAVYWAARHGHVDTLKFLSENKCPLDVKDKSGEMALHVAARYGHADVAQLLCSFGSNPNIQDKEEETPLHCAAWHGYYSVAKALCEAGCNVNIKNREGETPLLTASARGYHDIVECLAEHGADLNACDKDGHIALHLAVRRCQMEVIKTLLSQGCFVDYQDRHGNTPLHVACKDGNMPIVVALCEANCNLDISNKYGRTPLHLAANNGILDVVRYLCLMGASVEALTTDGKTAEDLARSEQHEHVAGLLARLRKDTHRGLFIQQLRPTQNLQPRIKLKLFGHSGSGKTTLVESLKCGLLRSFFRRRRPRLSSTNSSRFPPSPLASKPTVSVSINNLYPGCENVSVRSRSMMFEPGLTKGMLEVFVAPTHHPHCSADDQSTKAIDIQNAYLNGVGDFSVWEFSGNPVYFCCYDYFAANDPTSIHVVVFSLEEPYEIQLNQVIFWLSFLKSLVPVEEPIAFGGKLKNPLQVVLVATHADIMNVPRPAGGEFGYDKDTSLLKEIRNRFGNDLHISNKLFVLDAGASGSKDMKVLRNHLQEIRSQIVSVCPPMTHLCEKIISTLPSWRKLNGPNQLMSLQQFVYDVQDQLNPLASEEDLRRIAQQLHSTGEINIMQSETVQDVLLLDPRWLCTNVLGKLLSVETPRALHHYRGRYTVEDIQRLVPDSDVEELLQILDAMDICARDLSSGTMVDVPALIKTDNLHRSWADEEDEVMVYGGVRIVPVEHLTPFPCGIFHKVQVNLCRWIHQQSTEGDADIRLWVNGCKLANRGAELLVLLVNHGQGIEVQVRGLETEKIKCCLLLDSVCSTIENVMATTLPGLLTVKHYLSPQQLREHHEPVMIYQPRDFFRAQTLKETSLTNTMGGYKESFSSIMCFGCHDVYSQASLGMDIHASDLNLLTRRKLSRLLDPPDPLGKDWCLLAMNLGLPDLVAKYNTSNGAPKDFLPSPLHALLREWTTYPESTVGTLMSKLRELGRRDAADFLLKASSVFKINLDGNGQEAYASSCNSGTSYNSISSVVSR
Sequence of LCK (P06239 whole entry): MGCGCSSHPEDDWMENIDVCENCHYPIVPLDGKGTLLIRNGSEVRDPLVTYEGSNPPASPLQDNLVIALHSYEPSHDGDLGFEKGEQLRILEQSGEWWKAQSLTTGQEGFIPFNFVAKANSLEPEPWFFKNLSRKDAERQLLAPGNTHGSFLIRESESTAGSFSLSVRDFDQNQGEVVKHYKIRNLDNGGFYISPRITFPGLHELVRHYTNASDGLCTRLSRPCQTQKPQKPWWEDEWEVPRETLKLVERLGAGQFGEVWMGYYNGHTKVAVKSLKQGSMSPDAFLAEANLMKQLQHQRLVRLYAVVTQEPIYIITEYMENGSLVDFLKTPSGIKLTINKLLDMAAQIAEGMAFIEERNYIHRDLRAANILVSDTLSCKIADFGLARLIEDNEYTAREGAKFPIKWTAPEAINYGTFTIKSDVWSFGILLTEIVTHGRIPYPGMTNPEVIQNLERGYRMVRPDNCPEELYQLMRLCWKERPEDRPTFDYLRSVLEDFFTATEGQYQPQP
Sequence of P38a/MAPK14 (Q16539 whole entry): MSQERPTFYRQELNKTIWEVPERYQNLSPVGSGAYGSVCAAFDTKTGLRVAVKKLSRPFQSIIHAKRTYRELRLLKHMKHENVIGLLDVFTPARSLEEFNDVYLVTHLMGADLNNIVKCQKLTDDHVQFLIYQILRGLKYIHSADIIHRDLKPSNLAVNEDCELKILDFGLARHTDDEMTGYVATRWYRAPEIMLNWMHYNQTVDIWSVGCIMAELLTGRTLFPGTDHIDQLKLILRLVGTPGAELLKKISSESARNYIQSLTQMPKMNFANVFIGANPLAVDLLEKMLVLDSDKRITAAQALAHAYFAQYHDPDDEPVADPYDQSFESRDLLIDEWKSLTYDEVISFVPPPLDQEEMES
Sequence of CK1e (P49674 whole entry): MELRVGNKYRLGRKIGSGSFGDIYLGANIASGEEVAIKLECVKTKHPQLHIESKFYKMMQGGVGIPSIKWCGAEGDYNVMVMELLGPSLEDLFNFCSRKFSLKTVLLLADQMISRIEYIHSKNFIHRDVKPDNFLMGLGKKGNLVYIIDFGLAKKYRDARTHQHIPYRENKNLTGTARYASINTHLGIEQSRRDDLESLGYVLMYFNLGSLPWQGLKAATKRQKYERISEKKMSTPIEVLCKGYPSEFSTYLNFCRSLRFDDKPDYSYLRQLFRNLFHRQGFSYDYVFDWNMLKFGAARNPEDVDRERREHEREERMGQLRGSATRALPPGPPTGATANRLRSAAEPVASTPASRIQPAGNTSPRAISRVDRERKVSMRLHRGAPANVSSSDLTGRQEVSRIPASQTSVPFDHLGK
Sequence of CK1g2 (P78368 whole entry, species assumed): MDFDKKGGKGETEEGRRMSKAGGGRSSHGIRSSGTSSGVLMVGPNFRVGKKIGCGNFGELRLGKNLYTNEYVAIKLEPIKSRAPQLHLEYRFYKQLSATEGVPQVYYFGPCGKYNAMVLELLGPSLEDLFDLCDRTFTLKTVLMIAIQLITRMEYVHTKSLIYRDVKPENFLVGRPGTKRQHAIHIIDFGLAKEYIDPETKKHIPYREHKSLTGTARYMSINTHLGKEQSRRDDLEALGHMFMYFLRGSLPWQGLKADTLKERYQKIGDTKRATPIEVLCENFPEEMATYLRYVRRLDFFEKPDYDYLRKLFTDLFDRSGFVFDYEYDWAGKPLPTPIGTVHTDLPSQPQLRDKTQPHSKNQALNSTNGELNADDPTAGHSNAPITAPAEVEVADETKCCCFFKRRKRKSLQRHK
Sequence of ROCK1 (Q13464 whole entry): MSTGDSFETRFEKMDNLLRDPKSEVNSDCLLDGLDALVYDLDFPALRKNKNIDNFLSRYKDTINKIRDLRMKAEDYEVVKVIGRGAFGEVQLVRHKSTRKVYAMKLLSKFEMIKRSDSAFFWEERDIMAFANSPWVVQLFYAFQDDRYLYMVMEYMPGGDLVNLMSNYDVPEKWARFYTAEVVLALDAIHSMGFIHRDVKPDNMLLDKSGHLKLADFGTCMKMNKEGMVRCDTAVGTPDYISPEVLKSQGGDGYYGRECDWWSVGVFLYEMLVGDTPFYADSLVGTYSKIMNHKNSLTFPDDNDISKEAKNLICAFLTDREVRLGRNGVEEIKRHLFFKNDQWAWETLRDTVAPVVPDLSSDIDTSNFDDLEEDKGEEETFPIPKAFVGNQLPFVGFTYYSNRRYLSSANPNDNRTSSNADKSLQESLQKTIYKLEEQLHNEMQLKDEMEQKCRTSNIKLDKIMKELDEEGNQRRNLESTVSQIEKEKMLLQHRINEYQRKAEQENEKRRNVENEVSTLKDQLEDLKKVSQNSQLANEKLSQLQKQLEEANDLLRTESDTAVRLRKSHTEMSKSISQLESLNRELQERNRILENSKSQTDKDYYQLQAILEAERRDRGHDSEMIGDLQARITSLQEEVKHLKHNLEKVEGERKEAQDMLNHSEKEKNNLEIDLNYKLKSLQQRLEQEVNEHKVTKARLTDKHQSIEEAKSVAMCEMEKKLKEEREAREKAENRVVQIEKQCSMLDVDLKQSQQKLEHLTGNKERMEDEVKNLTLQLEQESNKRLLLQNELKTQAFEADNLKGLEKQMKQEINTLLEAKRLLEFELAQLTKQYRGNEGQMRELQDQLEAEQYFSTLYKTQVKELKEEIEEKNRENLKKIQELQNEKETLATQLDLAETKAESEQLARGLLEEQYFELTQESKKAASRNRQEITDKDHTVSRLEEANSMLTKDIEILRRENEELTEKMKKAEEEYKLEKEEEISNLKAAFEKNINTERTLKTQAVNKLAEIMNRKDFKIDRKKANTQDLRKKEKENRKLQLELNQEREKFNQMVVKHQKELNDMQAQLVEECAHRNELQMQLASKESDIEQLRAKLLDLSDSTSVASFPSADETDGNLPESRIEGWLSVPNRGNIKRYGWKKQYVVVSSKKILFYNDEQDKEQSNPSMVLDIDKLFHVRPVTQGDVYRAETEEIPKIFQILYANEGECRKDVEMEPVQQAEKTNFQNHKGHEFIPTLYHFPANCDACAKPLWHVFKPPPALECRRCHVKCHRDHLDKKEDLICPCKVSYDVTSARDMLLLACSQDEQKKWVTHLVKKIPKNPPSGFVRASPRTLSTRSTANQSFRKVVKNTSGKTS
Sequence of CK1g1 (Q9HCP0 whole entry): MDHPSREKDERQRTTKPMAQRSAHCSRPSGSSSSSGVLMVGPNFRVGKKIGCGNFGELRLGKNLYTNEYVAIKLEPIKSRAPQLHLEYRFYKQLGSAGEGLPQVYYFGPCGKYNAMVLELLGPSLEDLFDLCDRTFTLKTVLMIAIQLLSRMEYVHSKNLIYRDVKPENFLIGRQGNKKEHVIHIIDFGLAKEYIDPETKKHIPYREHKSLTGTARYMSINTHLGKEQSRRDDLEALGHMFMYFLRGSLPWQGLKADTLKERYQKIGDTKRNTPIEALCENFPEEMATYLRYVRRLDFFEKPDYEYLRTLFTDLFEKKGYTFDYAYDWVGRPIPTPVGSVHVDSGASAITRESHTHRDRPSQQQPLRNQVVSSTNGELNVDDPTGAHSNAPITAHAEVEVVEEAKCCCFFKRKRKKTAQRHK

`CNc1c(C(N)=O)c2ccccn2c1C(=O)c1ccc(F)cc1` [Compound A, 2-methyl-amino-3-[(4-fluorophenyl)carbonyl]indolizine-1-carboxamide] was tested, and the “Escape latency (time to reach the target), Mean ± SEM, Day 1” value ([1]; Day 1) was 58.1 ± 1.44 s, the “Path length to reach the target, Mean ± SEM, Day 1” value ([1]; Day 1) was 9.20 ± 0.46 meter and the “Escape latency (time to reach the target), Mean ± SEM, Day 2” value ([1]; Day 2) was 53.7 ± 2.41 s. For the same compound, the “Path length to reach the target, Mean ± SEM, Day 2” value ([1]; Day 2) was 8.60 ± 0.52 meter, the “Escape latency (time to reach the target), Mean ± SEM, Day 3” value ([1]; Day 3) was 49.4 ± 3.23 s and the “Path length to reach the target, Mean ± SEM, Day 3” value ([1]; Day 3) was 7.05 ± 0.62 meter. The “Escape latency (time to reach the target), Mean ± SEM, Day 4” value ([1]; Day 4) was 45.4 ± 3.22 s, the “Path length to reach the target, Mean ± SEM, Day 4” value ([1]; Day 4) was 6.94 ± 0.62 meter and the remaining binding at 10 µM [2] was 49%. It also gave a remaining binding at 10 µM [3] of 47%, a remaining binding at 10 µM [4] of 94% and a remaining binding at 10 µM [5] of 1.4%. The remaining binding at 10 µM [6] was 93%, the remaining binding at 10 µM [7] was 79% and the remaining binding at 10 µM [8] was 86%. For the same compound, the remaining binding at 10 µM [9] was 89%, the remaining binding at 10 µM [10] was 100% and the remaining binding at 10 µM [11] was 74%. It also gave a remaining binding at 10 µM [12] of 100%, a remaining binding at 10 µM [13] of 80% and a remaining binding at 10 µM [14] of 56%. For the same compound, the remaining binding at 10 µM [15] was 99%, the remaining binding at 10 µM [16] was 67% and the remaining binding at 10 µM [17] was 75%. The “% of remaining activity (relative to DMSO)” value ([18]; listed as Cmp A) was 3.67%, the remaining activity at 10 µM [18, 26] was 2.81% and the “% of remaining activity (relative to DMSO)” value ([19]; listed as Cmp A) was 119.87%. The remaining activity at 10 µM [19, 26] was 107%, the “% of remaining activity (relative to DMSO)” value ([20]; listed as Cmp A) was 99.83% and the remaining activity at 10 µM [20, 26] was 95.5%. For the same compound, the “% of remaining activity (relative to DMSO)” value ([21]; listed as Cmp A) was 124.50%, the remaining activity at 10 µM [21, 26] was 134% and the “% of remaining activity (relative to DMSO)” value ([22]; listed as Cmp A) was 39.87%. For the same compound, the remaining activity at 10 µM [22, 26] was 39.4%, the “% of remaining activity (relative to DMSO)” value ([23]; listed as Cmp A) was 34.47* % and the remaining activity at 10 µM [23, 26] was 35.3%. The “% of remaining activity (relative to DMSO)” value ([24]; listed as Cmp A) was 111.60%, the remaining activity at 10 µM [24, 26] was 113% and the “% of remaining activity (relative to DMSO)” value ([25]; listed as Cmp A) was 96.14%. It also gave a remaining activity at 10 µM [25, 26] of 95.5%.
